Assays:
ACSS2 [1] = biological target: T1, ACSS2 (Homo sapiens, UniProt Q9NR19); test: Cellular assay of 14C acetate incorporation into histones (IC50 ACSS2 cellular histone); type: cell-based; conditions: HCT-15 cells
T1 construct: endogenous fatty acid synthesis activity in the human HCT-15 cancer cell line; endogenous in cells; host or cells: HCT-15
Method in brief: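 Human HCT-15 cells preincubated 1 h with compound (0.25% DMSO final), then pulsed 3 h with 14C-acetate. Histones were acid-extracted (0.2 M HCl, overnight, 4° C) after Triton lysis in sodium-butyrate buffer; incorporated 14C counted by liquid scintillation (CPM) to give IC50.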

human rec ACSS2 = biological target: T2, human rec ACSS2 (Homo sapiens, UniProt Q9NR19); test: Biochemical activity ACSS2 assay (AMP-Glo); conditions: human recombinant ACSS2, AMP-Glo, 180 min at 37° C.
T2 construct: myc (C); purchased Origene
T2 sequence (Q9NR19 whole entry): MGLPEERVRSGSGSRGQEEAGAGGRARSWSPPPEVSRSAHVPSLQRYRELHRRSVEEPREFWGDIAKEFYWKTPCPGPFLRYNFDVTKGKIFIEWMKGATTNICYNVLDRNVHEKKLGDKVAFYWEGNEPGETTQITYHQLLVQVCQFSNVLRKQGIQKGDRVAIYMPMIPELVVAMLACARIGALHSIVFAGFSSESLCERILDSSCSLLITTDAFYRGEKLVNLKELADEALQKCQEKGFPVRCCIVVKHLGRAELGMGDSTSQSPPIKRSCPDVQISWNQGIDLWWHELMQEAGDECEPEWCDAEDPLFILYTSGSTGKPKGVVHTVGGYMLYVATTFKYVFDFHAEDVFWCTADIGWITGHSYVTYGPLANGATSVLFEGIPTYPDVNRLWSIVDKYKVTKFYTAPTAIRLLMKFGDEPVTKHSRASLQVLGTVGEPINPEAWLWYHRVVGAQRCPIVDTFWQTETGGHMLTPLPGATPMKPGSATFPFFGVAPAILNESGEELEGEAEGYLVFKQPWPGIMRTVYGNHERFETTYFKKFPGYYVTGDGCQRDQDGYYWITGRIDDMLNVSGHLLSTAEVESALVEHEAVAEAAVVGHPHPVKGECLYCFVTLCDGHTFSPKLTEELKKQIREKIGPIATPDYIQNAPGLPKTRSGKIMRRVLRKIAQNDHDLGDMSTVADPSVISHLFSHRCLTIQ
Method in brief: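 C-terminal myc-tagged human recombinant ACSS2 (1 nM) reacted with 100 µM ATP, 100 µM CoA and 500 µM acetate (final) in pH 7.5 Hepes buffer for 180 min at 37° C, compound in 10 concentrations from 30 µM. Released AMP detected by AMP-Glo luminescence. IC50 normalised to inhibitor-free reaction and 5 µM reference inhibitor.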

ACSS2 [2] = biological target: T1, ACSS2; test: Cellular assay of 14C acetate incorporation into fatty acids (IC50 ACSS2 cellular lipids); type: cell-based; conditions: HCT-15 cells
Procedure: This protocol describes a cellular assay capable to quantify endogenous fatty acid synthesis activity in the human HCT-15 cancer cell line following the incorporation of extracellularly administered radiolabeled ^14C acetate with a scintillation proximity based read out on extracted fatty acids.
HCT-15 cells were grown in RPMI 1640 (Gibco) supplemented with 2 mM glutamine, 1 mM sodium pyruvate 10 mM HEPES and 10 % FCS (heat-inactivated) passaged every 2-3 days to remain a subconfluent, vital culture. A working cell bank was prepared with each aliquot containing 1x10^7 viable cells. After thawing, these cells are dilute immediately 1:20 in pre-warmed (37° C.) culture medium. Cells are collected by centrifugation at 200 x g for 5 min, and the supernatant is replaced by 30 mL of fresh culture medium per aliquot to obtain a cell suspension containing 350000 cells/ml. From this cell suspension 100 µL are dispersed into each well of a collagen coated 96 well plate, (black, clear bottom, PS, F-bottom, Greiner) and culture for 24 h (37° C., 5% CO2). After incubation the culture medium is removed and the wells are washed once with 100 µL PBS++ (supplemented with Mg^2+/ Ca^2+, Gibco) and 50 µL assay medium (RPMI 1640 + 10 mM HEPES) are added to each well. Compounds serial dilutions are prepared from 10 mM stock solutions in DMSO using a fixed dilution factor (usually 1:3). After preparation of the dilution series in DMSO, the individual dilutions are further diluted in the assay medium. This working dilution is prepared such, that the concentration is 7x of the final concentration in the assay. The maximal DMSO concentration in the final assay is 0.1%.
To each well 10 µL compound working dilution or DMSO blank are added and the cells are cultured for 2 h (37° C., 5% CO2). Then 10 µL AlamarBlue reagent (Invitrogen) containing 14 µCi/mL ^14C-acetate (Perkin Elmer) are added to each well (70 µl total volume) and cells are again cultured for 2 h. Cell viability is verified by measuring the AlamarBlue fluorescence (Tecan Safire, ex: 544 nm / em: 590 nm). After incubation the culture medium is removed and the wells are carefully washed once with cold 100 µL PBS++. For cell lysis and fatty acid recovery 50 µl 0.1 M NaOH and 0.1 % Triton-X100 are added per well. The plate is sealed with PlateLoc (clear peelable heat seal, Agilent) and incubate at 70° C. for 16-24 h. After cooling to room temperature, the plates are centrifuged for 1 min at 1000 rpm and the plate seals are removed. For acidification 150 µL 0.1 M HCl are added to each well, mixed and 150 µL of the mixture are transferred into a 96 well FlashPlate (Perkin Elmer). The plates are sealed with TopSeaI-a (Perkin Elmer). To allow for the fatty acid binding to the well surfaces the plates are incubate for 4 h at 70° C. After cooling to room temperature, the plates are centrifuged for 1 min at 1000 rpm and stored for 0.5-2 h at room temperature in the dark. Radioactivity from ^14C incorporation into fatty acids in the wells is measured as CPM count in a MicroBeta scintillation counter (Perkin Elmer).

T1 sequence (Q9NR19 whole entry): as above

IC50 (ACSS2 [1])	IC50 (human rec ACSS2)	IC50 (ACSS2 [2])	Compound
10 to 100 nM	10 to 100 nM	0.01 to 1 nM	CCn1c(C(O)(c2ccccc2)c2ccccn2)nc2nc(OC)c(C(=O)Nc3ncn(CCO)n3)cc21 (racemic) [Compound 61, 1-ethyl-2-[hydroxy(phenyl)(pyridin-2-yl)methyl]-N-[1-(2-hydroxyethyl)-1H-1,2,4-triazol-3-yl]-5-methoxy-1H-imidazo[4,5-b]pyridine-6-carboxamide]
10 to 100 nM	100 to 10000 nM	1 to 10 nM	CCn1c(C(O)(c2ccccc2)c2ccccc2)nc2nc(Cl)c(C(=O)Nc3cnn(CCO)c3)cc21 [Compound 66, 5-chloro-1-ethyl-2-(hydroxydiphenylmethyl)-N-[1-(2-hydroxyethyl)-1H-pyrazol-4-yl]-1H-imidazo[4,5-b]pyridine-6-carboxamide]
0.01 to 1 nM	1 to 10 nM	0.01 to 1 nM	CCc1coc(NC(=O)c2cc3c(nc2OC)nc(C(O)(c2ccccc2)c2ccccc2)n3CC)n1 [Compound 59, 1-ethyl-N-(4-ethyl-1,3-oxazol-2-yl)-2-(hydroxydiphenylmethyl)-5-methoxy-1H-imidazo[4,5-b]pyridine-6-carboxamide]
0.01 to 1 nM	1 to 10 nM	10 to 100 nM	CCn1cnc(NC(=O)c2cc3c(nc2OC)nc(C(O)(c2ccccc2)c2cccs2)n3CC)n1 (racemic) [Compound 47, 1-ethyl-N-(1-ethyl-1H-1,2,4-triazol-3-yl)-2-[hydroxy(phenyl)(thiophen-2-yl)methyl]-5-methoxy-1H-imidazo[4,5-b]pyridine-6-carboxamide]
0.01 to 1 nM	1 to 10 nM	1 to 10 nM	CCn1ccc(NC(=O)c2cc3c(nc2Cl)nc(C(O)(c2ccccc2)c2ccccc2)n3CC)n1 [Compound 83, 5-chloro-1-ethyl-N-(1-ethyl-1H-pyrazol-3-yl)-2-(hydroxydiphenylmethyl)-1H-imidazo[4,5-b]pyridine-6-carboxamide]
1 to 10 nM	0.01 to 1 nM	0.01 to 1 nM	CCn1cnc(NC(=O)c2cc3c(nc2OC)nc(C(O)(c2ccc(OC(F)F)cc2)c2ccccc2F)n3CC)n1 (single isomer, unassigned) [Compound 75]
0.01 to 1 nM	1 to 10 nM	10 to 100 nM	CCn1cc(NC(=O)c2cc3c(nc2C)nc(C(O)(c2ccccc2F)c2ccccc2F)n3CC)cn1 [Compound 107, 2-[bis(2-fluorophenyl)(hydroxy)methyl]-1-ethyl-N-(1-ethyl-1H-pyrazol-4-yl)-5-methyl-1H-imidazo[4,5-b]pyridine-6-carboxamide]
1 to 10 nM	1 to 10 nM	100 to 10000 nM	CCn1cnc(NC(=O)c2cc3c(nc2OC)nc(C(O)(c2ccccc2)c2ccccc2)n3CCO)n1 [Compound 50, N-(1-ethyl-1H-1,2,4-triazol-3-yl)-2-(hydroxydiphenylmethyl)-1-(2-hydroxyethyl)-5-methoxy-1H-imidazo[4,5-b]pyridine-6-carboxamide]
10 to 100 nM	100 to 10000 nM		CCn1cnc(NC(=O)c2cc3c(nc2OC)nc(C(O)(c2ccccc2)c2ccccc2OC)n3CC)n1 (racemic) [Compound 57, 1-ethyl-N-(1-ethyl-1H-1,2,4-triazol-3-yl)-2-[hydroxy(2-methoxyphenyl)phenylmethyl]-5-methoxy-1H-imidazo[4,5-b]pyridine-6-carboxamide]

The next lines start with the compound.

Compound	IC50 (ACSS2 [1])	IC50 (human rec ACSS2)	IC50 (ACSS2 [2])
CCn1cnc(NC(=O)c2cc3c(nc2OC)nc(C(O)(c2ccccc2)c2ccc(C)s2)n3CC)n1 (racemic) [Compound 51, 1-ethyl-N-(1-ethyl-1H-1,2,4-triazol-3-yl)-2-[hydroxy(5-methylthiophen-2-yl)phenylmethyl]-5-methoxy-1H-imidazo[4,5-b]pyridine-6-carboxamide]	0.01 to 1 nM	1 to 10 nM	1 to 10 nM
CCn1c(C(O)(c2ccccc2)c2ccccc2)nc2nc(OC)c(C(=O)Nc3ncn(CCN)n3)cc21 [Compound 46, N-[1-(2-aminoethyl)-1H-1,2,4-triazol-3-yl]-1-ethyl-2-(hydroxydiphenylmethyl)-5-methoxy-1H-imidazo[4,5-b]pyridine-6-carboxamide]	100 to 10000 nM	10 to 100 nM	100 to 10000 nM
CCc1cnc(NC(=O)c2cc3c(nc2OC)nc(C(O)(c2ccccc2)c2ccccc2)n3CC)o1 [Compound 60, 1-ethyl-N-(5-ethyl-1,3-oxazol-2-yl)-2-(hydroxydiphenylmethyl)-5-methoxy-1H-imidazo[4,5-b]pyridine-6-carboxamide]	0.01 to 1 nM	0.01 to 1 nM	1 to 10 nM
CCn1cnc(NC(=O)c2cc3c(nc2OC)nc(C(O)(c2ccccc2)c2ccccn2)n3CC)n1 (racemic) [Compound 69, 1-ethyl-N-(1-ethyl-1H-1,2,4-triazol-3-yl)-2-[hydroxy(phenyl)(pyridin-2-yl)methyl]-5-methoxy-1H-imidazo[4,5-b]pyridine-6-carboxamide]	0.01 to 1 nM	1 to 10 nM	1 to 10 nM
CCn1cnc(NC(=O)c2cnc3nc(C(O)(c4ccccc4)c4ccccc4)n(CC)c3c2)n1 [Compound 111, 1-ethyl-N-(1-ethyl-1H-1,2,4-triazol-3-yl)-2-(hydroxydiphenylmethyl)-1H-imidazo[4,5-b]pyridine-6-carboxamide]	100 to 10000 nM	1 to 10 nM	100 to 10000 nM
CCn1cc(NC(=O)c2cc3c(nc2OC)nc(C(O)(c2ccccc2F)c2ccccc2F)n3CC)cn1 [Compound 104, 2-[bis(2-fluorophenyl)(hydroxy)methyl]-1-ethyl-N-(1-ethyl-1H-pyrazol-4-yl)-5-methoxy-1H-imidazo[4,5-b]pyridine-6-carboxamide]	1 to 10 nM	1 to 10 nM	1 to 10 nM
CCn1c(C(O)(c2ccccc2)c2ccccn2)nc2nc(OC)c(C(=O)Nc3ncn(CCOC)n3)cc21 (racemic) [Compound 65, 1-ethyl-2-[hydroxy(phenyl)(pyridin-2-yl)methyl]-5-methoxy-N-[1-(2-methoxyethyl)-1H-1,2,4-triazol-3-yl]-1H-imidazo[4,5-b]pyridine-6-carboxamide]	1 to 10 nM	100 to 10000 nM	10 to 100 nM
CCn1cnc(NC(=O)c2cc3c(nc2OC)nc(C(O)(c2cccs2)c2cccs2)n3CC)n1 [Compound 55, 1-ethyl-N-(1-ethyl-1H-1,2,4-triazol-3-yl)-2-[hydroxybis(thiophen-2-yl)methyl]-5-methoxy-1H-imidazo[4,5-b]pyridine-6-carboxamide]	0.01 to 1 nM	1 to 10 nM	0.01 to 1 nM
CCn1cnc(NC(=O)c2cc3c(nc2OC)nc(C(O)(c2ccccc2)c2ccc(OC(F)F)cc2F)n3CC)n1 (racemic) [Compound 78, 2-{[4-(difluoromethoxy)-2-fluorophenyl](hydroxy)phenylmethyl}-1-ethyl-N-(1-ethyl-1H-1,2,4-triazol-3-yl)-5-methoxy-1H-imidazo[4,5-b]pyridine-6-carboxamide]	0.01 to 1 nM	1 to 10 nM	
CCn1cc(NC(=O)c2cc3c(nc2Cl)nc(C(O)(c2ccccc2)c2ccc(OC(F)F)cc2F)n3CC)cn1 (single isomer, unassigned) [Compound 74]	1 to 10 nM	1 to 10 nM	
CCn1cnc(NC(=O)c2cc3c(nc2Cl)nc(C(O)(c2ccccc2)c2ccccc2)n3CC)c1 [Compound 82, 5-chloro-1-ethyl-N-(1-ethyl-1H-imidazol-4-yl)-2-(hydroxydiphenylmethyl)-1H-imidazo[4,5-b]pyridine-6-carboxamide]	0.01 to 1 nM	1 to 10 nM	

Reference: US20230271956A1, “AMIDE DERIVATIVES” (Merck Patent GmbH, priority 2020, published 2023)
